Laboratory results taken from US8455397B2, “Penoxsulam as a turfgrass, vineyard and orchard floor herbicide” (Dow AgroSciences, LLC, priority 2005, dated 2013).

How the values were obtained:
giant foxtail (SETFA) = test: Pre-emergence weed nursery field study; format: in vivo, Setaria faberi; details: weed nursery in the field, 27 Days After Application
Protocol: (§1) Field studies were conducted in a non-fumigated weed nursery trial. Weed species were planted in single strips with a row planter at 36 centimeter spacing. Plot size was 3.05×9.2 meters, 4 replicate plots per treatment. Weed species were seeded at appropriate depths and later the same day pre-emergent applications were made to the soil surface. Liquid applications were made using a backpack sprayer calibrated to deliver 187 liters per hectare (L/ha). Applications were made in Fresno, Calif. in June. Sprinkler irrigation was applied at regular intervals throughout study period. Control of each weed species in the study site was made 4 weeks after treatment. Control was determined visually by comparing treated and untreated weeds and scored on a 0 to 100 percent scale where 0 corresponds to no control and 100 corresponds to complete kill or no emergence.

sun spurge (EPHHE) = test: Pre-emergence orchard floor weeds, greenhouse study; format: in vivo, Euphorbia helioscopia; details: 28 Days After Application
Protocol: (§2) Greenhouse studies were conducted by seeding species in a loam soil and applying the herbicides to the soil surface using a Cornwall 5 milliliter glass syringe fitted with a TeeJet TN-3 nozzle on an area basis Immediately following herbicide application the pots were irrigated over the top to move the herbicides into the seeding zone. Pots were kept well irrigated throughout the trial. A percent visual weed control assessment was taken 4 weeks after application. Control was determined visually by comparing treated and untreated pots and scored on a 0 to 100 percent scale where 0 corresponds to no control and 100 corresponds to complete kill, or no emergence.

dandelion (TAROF) = test: Postemergent granule herbicides, turfgrass field studies; format: in vivo, Taraxacum officinale
Protocol: (§3) Field studies were conducted in established turfgrass sites containing a natural population of target broadleaf weeds. Replicated trials, containing a minimum of three replications and having individual plots ranging in size from 25 to 50 ft. sq (2.3 to 4.6 square meters), were initiated in the late spring when turf and weeds were actively growing. Granule treatments were uniformly applied to individual plots using a common hand-shaker method. Applications were made in the early morning when dew was present. Natural rainfall and supplemental irrigation were used to maintain healthy turf and active weed growth throughout the study period. Control of each weed species in the study site was made at 2, 4 and 8 weeks after treatment. Control was determined visually by comparing treated and untreated weeds and scored on a 0 to 100 percent scale where 0 corresponds to no control and 100 corresponds to complete kill.

junglerice (ECHCO) = test: Pre-emergence weed nursery field study; format: in vivo, Echinochloa colonum; details: weed nursery in the field, 27 Days After Application
Protocol: as §1

barnyardgrass (ECHCG) = test: Pre-emergence weed nursery field study; format: in vivo, Echinochloa crus-galli; details: weed nursery in the field, 27 Days After Application
Protocol: as §1

white clover (TRFRE) [1] = test: Postemergent granule herbicides, turfgrass field studies; format: in vivo, Trifolium repens L.
Protocol: as §3

[2] = system: annual sowthistle (SONOL); test: Pre-emergence orchard floor weeds, greenhouse study; format: in vivo, Sonchus oleraceus; details: 28 Days After Application
Protocol: as §2

redstem filaree (EROCI) = test: as above; format: in vivo, Erodivam cicutarium; details: 28 Days After Application
Protocol: as §2

white clover (TRFRE) [3] = test: Granule carrier/particle size, post emergence greenhouse study; format: in vivo, Trifolium repens L.; details: postemergent greenhouse
Protocol: Greenhouse and field studies evaluated the effect of two granule carriers and two particles sizes on the postemergent broadleaf activity of penoxsulam. The two carriers were a 46-0-0 and 28-4-12 fertilizer blend and the particle sizes averaged 0.75 mm and 2.15 mm.
Greenhouse studies were applied both post and pre-emergence to broadleaf weeds and sedge reared from seed or nutlet in 12.7″ (32.25 cm) by 8.8″ (22.35 cm) flats of a loam soil. Particle size and carrier were evaluated post emergence, carrier comparisons with the smaller particle size of 0.75 was evaluated pre-emergence. Stage of growth of species at post emergence application: PLAMA and TAROF in the 3 to 5 leaf stage, TRFRE in the 3rd tri-foliate stage and CYPES in the 3 to 4 leaf stage. Post emergence trial design was a replicated block, one species per flat, 3 replicate flats per treatment. Granule treatments were uniformly applied to individual flats on an area basis using a common hand-shaker method. Post emergence applications were made to the flat covering both soil and misted foliage. Trial was sub-irrigated daily, and watered over the top 1 time per week starting 7 days after application to simulate a natural rainfall event. Active weed growth was maintained throughout the study period. Weed control of each species in the post emergence study was assessed at 2, 3 and 4 weeks after treatment. Pre-emergence trial design was 2 species per flat, 4 replicate flats, block design. Pre-emergence applications were made to the soil surface using a common hand shaker method on an area basis. Overhead irrigation was maintained throughout the trial. Weed control of each species in the pre-emergence study was assessed at 2, 3, 4 and 5 weeks after application. Control was determined visually by comparing treated and untreated flats and scored on a 0 to 100 percent scale where 0 corresponds to no control and 100 corresponds to complete kill.

With `COc1cnc(OC)n2nc(NS(=O)(=O)c3c(OCC(F)F)cccc3C(F)(F)F)nc12` [Penoxsulam, 2-(2,2-difluoroethoxy)-N-(5,8-dimethoxy[1,2,4]triazolo[1,5-c]-pyrimidin-2-yl)-6-(trifluoromethyl)benzenesulfonamide] the “Pre-emergent Percent Mean Control” value (giant foxtail (SETFA); 8.8 gai/Ha) was 70%, the “Pre-emergent Percent Mean Control” value (giant foxtail (SETFA); 17.5 gai/Ha) was 78% and the “Pre-emergent Percent Mean Control” value (giant foxtail (SETFA); 35 gai/Ha) was 88%. The “Pre-emergent Percent Mean Control” value (giant foxtail (SETFA); 70 gai/Ha) was 96%, the “Pre-emergent Percent Mean Control” value (sun spurge (EPHHE); 8.8 gai/Ha) was 87% and the “Pre-emergent Percent Mean Control” value (sun spurge (EPHHE); 17.5 gai/Ha) was 97%. For the same molecule, the “Pre-emergent Percent Mean Control” value (sun spurge (EPHHE); 35 gai/Ha) was 98%, the “Pre-emergent Percent Mean Control” value (sun spurge (EPHHE); 70 gai/Ha) was 100% and the “Mean Percent Weed Control” value (dandelion (TAROF); Table I, 4 Weeks After Treatment, 5 sites, Penoxsulam 140 gai/Ha, Scotts Plus 2 1682+841 gae/Ha, Trimec 1121+516+112 gae/Ha) was 93%. For the same molecule, the “Mean Percent Weed Control” value (dandelion (TAROF); Table I, 8 Weeks After Treatment, 5 sites, Penoxsulam 140 gai/Ha, Scotts Plus 2 1682+841 gae/Ha, Trimec 1121+516+112 gae/Ha) was 87%, the “Mean Percent Weed Control” value (dandelion (TAROF); Table III, 4 Weeks After Treatment, 22.4 gai/Ha, 6 sites) was 45% and the “Mean Percent Weed Control” value (dandelion (TAROF); Table III, 4 Weeks After Treatment, 44.9 gai/Ha, 6 sites) was 61%. The “Mean Percent Weed Control” value (dandelion (TAROF); Table III, 4 Weeks After Treatment, 67.3 gai/Ha, 6 sites) was 61%, the “Mean Percent Weed Control” value (dandelion (TAROF); Table III, 4 Weeks After Treatment, 100 gai/Ha, 6 sites) was 69% and the “Mean Percent Weed Control” value (dandelion (TAROF); Table III, 8 Weeks After Treatment, 22.4 gai/Ha, 6 sites) was 25%. The “Mean Percent Weed Control” value (dandelion (TAROF); Table III, 8 Weeks After Treatment, 44.9 gai/Ha, 6 sites) was 45%, the “Mean Percent Weed Control” value (dandelion (TAROF); Table III, 8 Weeks After Treatment, 67.3 gai/Ha, 6 sites) was 47% and the “Mean Percent Weed Control” value (dandelion (TAROF); Table III, 8 Weeks After Treatment, 100 gai/Ha, 6 sites) was 57%. The “Pre-emergent Percent Mean Control” value (junglerice (ECHCO); 8.8 gai/Ha) was 88%, the “Pre-emergent Percent Mean Control” value (junglerice (ECHCO); 17.5 gai/Ha) was 94% and the “Pre-emergent Percent Mean Control” value (junglerice (ECHCO); 35 gai/Ha) was 100%. For the same molecule, the “Pre-emergent Percent Mean Control” value (junglerice (ECHCO); 70 gai/Ha) was 100%, the “Pre-emergent Percent Mean Control” value (barnyardgrass (ECHCG); 8.8 gai/Ha) was 87% and the “Pre-emergent Percent Mean Control” value (barnyardgrass (ECHCG); 17.5 gai/Ha) was 96%. The “Pre-emergent Percent Mean Control” value (barnyardgrass (ECHCG); 35 gai/Ha) was 98%, the “Pre-emergent Percent Mean Control” value (barnyardgrass (ECHCG); 70 gai/Ha) was 100% and the “Mean Percent Weed Control” value (white clover (TRFRE) [1]; Table I, 4 Weeks After Treatment, 8 sites, Penoxsulam 140 gai/Ha, Scotts Plus 2 1682+841 gae/Ha, Trimec 1121+516+112 gae/Ha) was 93%. For the same molecule, the “Mean Percent Weed Control” value (white clover (TRFRE) [1]; Table I, 8 Weeks After Treatment, 7 sites, Penoxsulam 140 gai/Ha, Scotts Plus 2 1682+841 gae/Ha, Trimec 1121+516+112 gae/Ha) was 94%, the “Mean Percent Weed Control” value (white clover (TRFRE) [1]; Table III, 4 Weeks After Treatment, 22.4 gai/Ha, 8 sites) was 85% and the “Mean Percent Weed Control” value (white clover (TRFRE) [1]; Table III, 4 Weeks After Treatment, 44.9 gai/Ha, 8 sites) was 94%. The “Mean Percent Weed Control” value (white clover (TRFRE) [1]; Table III, 4 Weeks After Treatment, 67.3 gai/Ha, 8 sites) was 96%, the “Mean Percent Weed Control” value (white clover (TRFRE) [1]; Table III, 4 Weeks After Treatment, 100 gai/Ha, 8 sites) was 96% and the “Mean Percent Weed Control” value (white clover (TRFRE) [1]; Table III, 8 Weeks After Treatment, 22.4 gai/Ha, 8 sites) was 74%. For the same molecule, the “Mean Percent Weed Control” value (white clover (TRFRE) [1]; Table III, 8 Weeks After Treatment, 44.9 gai/Ha, 8 sites) was 88%, the “Mean Percent Weed Control” value (white clover (TRFRE) [1]; Table III, 8 Weeks After Treatment, 67.3 gai/Ha, 8 sites) was 91% and the “Mean Percent Weed Control” value (white clover (TRFRE) [1]; Table III, 8 Weeks After Treatment, 100 gai/Ha, 8 sites) was 97%. For the same molecule, the “Pre-emergent Percent Mean Control” value ([2]; 8.8 gai/Ha) was 72%, the “Pre-emergent Percent Mean Control” value ([2]; 17.5 gai/Ha) was 78% and the “Pre-emergent Percent Mean Control” value ([2]; 35 gai/Ha) was 82%. For the same molecule, the “Pre-emergent Percent Mean Control” value ([2]; 70 gai/Ha) was 87%, the “Pre-emergent Percent Mean Control” value (redstem filaree (EROCI); 8.8 gai/Ha) was 79% and the “Pre-emergent Percent Mean Control” value (redstem filaree (EROCI); 17.5 gai/Ha) was 97%. The “Pre-emergent Percent Mean Control” value (redstem filaree (EROCI); 35 gai/Ha) was 100%, the “Pre-emergent Percent Mean Control” value (redstem filaree (EROCI); 70 gai/Ha) was 100% and the “Percent Weed Control 27-30 DAA” value (white clover (TRFRE) [3]; carrier 28-4-12, particle size 0.75 mm, 5.6 gai/Ha) was 40%. The “Percent Weed Control 27-30 DAA” value (white clover (TRFRE) [3]; carrier 28-4-12, particle size 0.75 mm, 11.2 gai/Ha) was 57%, the “Percent Weed Control 27-30 DAA” value (white clover (TRFRE) [3]; carrier 28-4-12, particle size 0.75 mm, 22.4 gai/Ha) was 68% and the “Percent Weed Control 27-30 DAA” value (white clover (TRFRE) [3]; carrier 28-4-12, particle size 2.15 mm, 5.6 gai/Ha) was 12%. For the same molecule, the “Percent Weed Control 27-30 DAA” value (white clover (TRFRE) [3]; carrier 28-4-12, particle size 2.15 mm, 11.2 gai/Ha) was 38%, the “Percent Weed Control 27-30 DAA” value (white clover (TRFRE) [3]; carrier 28-4-12, particle size 2.15 mm, 22.4 gai/Ha) was 58% and the “Percent Weed Control 27-30 DAA” value (white clover (TRFRE) [3]; carrier 46-0-0, particle size 0.75 mm, 5.6 gai/Ha) was 22%. The “Percent Weed Control 27-30 DAA” value (white clover (TRFRE) [3]; carrier 46-0-0, particle size 0.75 mm, 11.2 gai/Ha) was 58%, the “Percent Weed Control 27-30 DAA” value (white clover (TRFRE) [3]; carrier 46-0-0, particle size 0.75 mm, 22.4 gai/Ha) was 72% and the “Percent Weed Control 27-30 DAA” value (white clover (TRFRE) [3]; carrier 46-0-0, particle size 2.15 mm, 5.6 gai/Ha) was 5%. For the same molecule, the “Percent Weed Control 27-30 DAA” value (white clover (TRFRE) [3]; carrier 46-0-0, particle size 2.15 mm, 11.2 gai/Ha) was 33% and the “Percent Weed Control 27-30 DAA” value (white clover (TRFRE) [3]; carrier 46-0-0, particle size 2.15 mm, 22.4 gai/Ha) was 37%.
